Measured values from ChEMBL document CHEMBL5365506, “Novel Haloacethydrazides as AEP Inhibitors for Treating Alzheimer's Disease” (ACS Med Chem Lett, 2023).

molecular target: T1, Legumain (Homo sapiens, UniProt Q99538); assay: Inhibition of human 8His-tagged AEP (V18 to Y433 residues) using Z-Ala-Ala-Asn-Rhl 10-(D-Pro) as substrate incubated for 30 mins followed by substrate addition by fluorescence based microplate reader analysis
T1 sequence (Q99538 whole entry): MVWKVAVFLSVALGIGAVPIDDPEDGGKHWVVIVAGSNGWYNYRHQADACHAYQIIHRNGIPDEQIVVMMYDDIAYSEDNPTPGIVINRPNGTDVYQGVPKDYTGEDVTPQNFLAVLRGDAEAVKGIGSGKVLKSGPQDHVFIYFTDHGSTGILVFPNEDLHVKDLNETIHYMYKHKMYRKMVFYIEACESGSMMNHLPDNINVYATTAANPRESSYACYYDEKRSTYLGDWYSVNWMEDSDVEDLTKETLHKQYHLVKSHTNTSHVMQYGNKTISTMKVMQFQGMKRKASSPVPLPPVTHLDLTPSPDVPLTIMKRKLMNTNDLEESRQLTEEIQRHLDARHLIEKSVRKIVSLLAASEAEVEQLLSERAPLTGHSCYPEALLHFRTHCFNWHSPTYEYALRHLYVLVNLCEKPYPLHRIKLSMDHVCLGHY

Row | Compound | IC50 [nM]
1 | C#CCOc1ccc(C2(C(=O)N3CCC[C@H]3C(=O)NN(CC(N)=O)C(=O)CF)CC2)cc1 | 1
2 | COc1ccc(-c2ccc(S(=O)(=O)N3CCC[C@H]3C(=O)NN(CC(N)=O)C(=O)CF)cc2)cc1 | 1
3 | NC(=O)CN(NC(=O)[C@@H]1CCCN1C(=O)C1(c2ccc(Cl)cc2)CCC1)C(=O)CF | 1
4 | C#Cc1ccc(C2(C(=O)N3CCC[C@H]3C(=O)NN(CC(N)=O)C(=O)CF)CC2)cc1 | 1
